Measured values from a melting point compilation (Tetko et al.; mined from patent text by program, amines drawn as free bases though some values may be those of a salt).

| Compound | melting point |
| --- | --- |
| Fc1ccc(C#CCCC#Cc2ccccn2)cc1 | 68 to 69 °C |
| COc1ccc(OCCCCCCCc2cc(C)no2)c([N+](=O)[O-])c1 | 51 °C |
| CN1CCN(c2cc(N)ccc2F)CC1 | 155 to 156 °C |
| CN(Cc1ccccc1)C(=O)c1cc2ccccc2c(-c2ccccc2Cl)n1 | 128 °C |
| CCCn1nc2c(N)nc3ccccc3c2c1CCCCO | 135 to 136 °C |
| O=C(O)CC1=CSCCS1 | 82 °C |
| COC(=O)C[C@H]1N=C(c2ccccc2Cl)c2cc(Cl)ccc2NC1=O | 168 to 170 °C |
| CCOC(=O)c1ccc(OCCC2CN(c3nnc(Br)s3)CCO2)cc1 (stereo not drawn) | 131 °C |
| COc1ccc(S(=O)(=O)C2(C(=O)O)CCN(Cc3ccc(-c4ccccn4)cc3)CC2)cc1 | 217 °C |
| O=C(OCCO)c1ccc(C(=O)OCCO)cc1 | 108 to 110 °C |
| CCOc1c(C)cc(P(c2cc(C)c(OCC)c(C)c2)c2cc(C)c(OCC)c(C)c2)cc1C | 122 °C |
| CCCn1cc2c(C3C(=O)Nc4ccc(C#N)cc43)nc(NCCc3cccnc3)nc2n1 (stereo not drawn) | 302 to 305 °C |
| CC1(OCc2ccccc2)CCCC(C)(C(=O)Nc2ccccc2)O1 (stereo not drawn) | 55 to 56 °C |
| CCCCCCCCCCCCCCCCCCS(=O)c1cc2ccccc2cc1O (stereo not drawn) | 107 to 108 °C |
| C[Si](C)(C)C#Cc1ccc2c(c1)C(c1ccccc1)=NCc1c(C(=O)OCC(F)(F)F)ncn1-2 | 107 to 110 °C |
| Cc1ccc2c(c1)CN(C)C(=O)CC2 | 75 to 76 °C |
| COc1ccc(Sc2cnc(N)s2)cc1 | 119 to 120 °C |
| CC(=O)ON1CC(NC(=O)OCc2ccccc2)C1=O (stereo not drawn) | 130 to 131 °C |
| O=c1[nH]c2[nH]c3ccc(Cl)cc3c2c2ccccc12 | > 300 °C |
| CCS(=O)(=O)Nc1cc(-n2ncc(=O)n(C)c2=O)c(F)cc1C#N | 233 °C |
| COC(=O)c1cn2c(=O)c(Cl)c(C)nc2s1 | 218 to 220 °C |

| Compound | melting point |
| --- | --- |
| Cc1ccccc1Nc1c(N)cnc2ccccc12 | 156 to 158 °C |
| CCN(CC)CCNC(=O)N1CCCC(S(=O)(=O)c2ccc(OCCN(C)C)cc2)C1 (stereo not drawn) | 79 to 80 °C |
| Fc1ccc(-c2cc(N3CCC(c4ncc[nH]4)CC3)c3sccc3n2)cc1 | 95 °C |
| CC(C)Oc1cc(-c2[nH]c3cn[nH]c(=O)c3c2Cl)ccc1OC(F)F | 248 to 262 °C |
| CC(C)(C)OC(=O)N[C@H]1CN(Cc2ccccc2)[C@@H]2CCO[C@H]12 (relative stereo) | 115 to 116 °C |
| O=C1Nc2ccccc2CCC1N1C(=O)c2ccccc2C1=O (stereo not drawn) | 261 to 263 °C |
| Cc1oc(C2CC=CCC2)nc1CC(=O)O (stereo not drawn) | 86 to 87 °C |
| Cc1cc(F)ccc1Nc1nc(N(C)c2ccccc2)c2cccc(OCCCN3CCOCC3)c2n1 | 133 to 134 °C |
| COC1=C(OC)C(OC)C(C=CC(=O)O)(OC)C=C1C (stereo not drawn) | 117 to 118 °C |
| CSc1sc(-c2ccn(C)n2)c2c1-c1oncc1C(C)(C)C2 | 128 to 130 °C |
| CCc1nc(NC)sc1C(=O)c1ccc(N)c([N+](=O)[O-])c1 | 210 to 215 °C |
| COC(=O)C1CCc2sc3ccccc3c2C1=O (stereo not drawn) | 158 to 160 °C |
| COc1nc(NC(=O)NS(=O)(=O)c2cccc3c2CCCC3)nc(OC)n1 | 171 to 173 °C |
| CC1C(=O)CC(C)C(C#N)C1=O (stereo not drawn) | 178 to 179 °C |
| Clc1nc(C(c2ccccc2)(c2ccccc2)n2ccnc2)nc(Cl)c1Cl | 142 to 146 °C |
| CN1OC(C=Cc2ccccc2)CC1(Cn1ccnc1)c1ccc2ccccc2c1 (stereo not drawn) | 166 to 169 °C |
| O=C(NC1CN(C(C(=O)O)c2ccccc2)C1=O)C(=NO)c1ccccc1 (stereo not drawn) | 145 to 149 °C |
| CC(C)(CO)CCCC(O)CCC(O)CCCC(C)(C)CO (stereo not drawn) | 96 to 97 °C |
| CCn1c(=NC(C)=O)c(-c2cc(OC)cc(OC)c2)cc2cnc(SC)nc21 | 145 to 150 °C |
| CCc1cc(N(CC)C(=O)N2CCN(c3cc(C)cc(C)c3)CC2)c(OC)nc1C | 84 to 85 °C |
| OCCCc1nc2ccccn2n1 | 71.5 to 73 °C |

More lines, now with the values ahead:

| melting point | Compound |
| --- | --- |
| 156 to 158 °C | CC(C)(C)OC(=O)COc1ccc(C(=O)NNC(=O)c2ccc(CNC(=O)OC(C)(C)C)cc2)cc1OCC(=O)OC(C)(C)C |
| 179 to 180 °C | CC(C)c1cc(C(=O)Nc2ccc(C(=O)O)c(O)c2)oc1C(C)C |
| 158 °C | COC(=O)c1c(SCc2ccc(OC)cc2)nc(-c2ccccc2)n1Cc1cc2c(cc1Cl)OCO2 |
| 63 to 65 °C | CCN(CC)CCCC(=O)c1ccc2c(c1)Cc1cc(C(=O)CCCN(CC)CC)ccc1O2 |
| 68 to 72 °C | O=C1CCCC(=O)C1C(=O)c1ccc(OC(F)F)cc1Cl |
| 161 to 162 °C | CC(C)C(=O)c1cn(Cc2c(F)cccc2F)c2sc(-c3ccc(NC(=O)C(C)CO)cc3)c(CN(C)Cc3ccccc3)c2c1=O (stereo not drawn) |
| 110 to 111 °C | O=C(c1ccccc1)c1cc(Cl)cc(I)c1O |
| 224 °C | Nc1ccc(S(=O)(=O)Nc2ccc(Cl)cc2Cl)cc1C(=O)O |
| 271 to 272 °C | CCOC(=O)c1ncc2[nH]c3ccc(C(=O)OCc4ccccc4)cc3c2n1 |
| 26 to 30 °C | CC(C)CCOC(=O)c1ccc2c(=O)c3ccccc3ccc2c1 |
| 126 to 128 °C | [N-]=[N+]=Nc1nc(C(F)(F)F)nc(-c2ccccc2)c1-c1ccccc1 |
| 96 to 102 °C | Clc1ccc(OCc2noc(-c3ccccc3)n2)cc1 |
| 64 to 66 °C | O=C(c1ccccc1Cl)c1cc(Cl)ccc1I |
| 136 to 138 °C | Cc1cc(NC(=O)Oc2ccc([N+](=O)[O-])cc2)cc(C(F)(F)F)c1 |
| 248 to 249 °C | Cc1c(C(=O)O)oc(=O)c2ccccc12 |
| 203 to 205 °C | Cc1cc(-c2nc3ccc(F)cc3s2)ccc1N |

| melting point | Compound |
| --- | --- |
| 150 to 152 °C | O=C(O)CCCc1ccc(S(=O)(=O)Nc2ccc(Cl)cc2)cn1 |
| 295 to 297 °C | N#CC(C(=O)Nc1ccccc1Cl)C(=O)c1nn(-c2ccccc2)c2c1Cc1ccccc1-2 (stereo not drawn) |
| 160 to 165 °C | CC(=O)Nc1ccc(/C=C/C(=O)NC/C=C(/C)c2ccc(C)c(CO)c2C)cn1 |
| 246 to 249 °C | O=C(O)c1ccc2sc(Cc3cccnc3)cc2c1 |
| 208 to 210 °C | Cc1cc2c(cc1Oc1ccc(C(=O)O)cc1)C(C)(C)CCC2(C)C |
| 219 to 221 °C | Cc1cc(-c2nnc3c4ccccc4c(OCc4cc(C(C)(C)C)cnn4)nn23)no1 |
| 98 to 100 °C | CCOc1ccccc1OCCNC(=O)CCC(=O)c1ccc(F)cc1 |
| 121 to 123 °C | O=C1NC(=O)c2c1c(-c1ccccc1Cl)cc1c2c(Br)cn1CCCO |
| 135 °C | COC(=O)c1cccc2[nH]cc(C=O)c12 |
| 191 to 196 °C | CCC(CC)(CC(=O)Nc1ccc2ccc(OCc3ccc4cc(F)ccc4n3)cc2c1)C(=O)O |
| 252 to 253 °C | COc1cc(O)c2c(=O)c(OC)c(-c3ccc(O)cc3)oc2c1 |
| 85 to 95 °C | COc1cccc(CNc2ccc(C(C)=O)cc2)c1OCCCC(=O)O |
| 224 to 226 °C | Cc1nc2c(C(=O)O)c(C(=O)O)ccc2n1Cc1ccccc1 |
| 85 to 88 °C | O=c1c(-c2ccccc2)nc2ccccc2n1CC(F)F |
| 169 to 170 °C | O=C(O)COc1ccc(C(F)(F)F)cc1C(=O)NCc1ccc(Br)cc1F |
